One assay concerns rat mu opioid receptor. As to the kind of experiment: CRE-Luc luciferase reporter assay with forskolin stimulation. Format: cell-based. As to conditions: FIG. 3, CRE-Luc. The text has this:
Similarly, a constitutively active rat mu opioid receptor was identified using a reporter construct sensitive to Gαi coupling (see FIG. 3). The response element employed in this assay was the cAMP-response element (CRE), which is sensitive to Gαi mediated changes in intracellular levels of cAMP. Signaling through the rat mu opioid receptor via Gαi inhibits adenylate cyclase, causing a decrease in intracellular cAMP. Therefore, an increase in rat mu opioid receptor signaling induces a decrease in CRE mediated reporter activity.
Prior to the present invention, Gαi-mediated decreases in intracellular cAMP were measured by (1) stimulating cells with forskolin, which causes receptor-independent activation of adenylate cyclase and generates an intracellular pool of cAMP; (2) stimulating the cells with ligand; and (3) measuring the ligand-induced, receptor-dependent Gαi-mediated decrease in the intracellular cAMP pool (e.g., using a radioimmunoassay (e.g., New England Nuclear, Boston, Mass.)). […] The basal (and ligand-induced) level of receptor activity was then measured using a standard luciferase assay (see FIG. 3). Coexpression of the receptor of interest with a luciferase reporter gene construct allows one to measure light emission as a readout for basal signaling.
In general terms: A reporter such as luciferase makes a cellular process visible.

In another assay the target is T1, MC-4 receptor (Homo sapiens, UniProt P32245, D146M).
T1 construct: expressed in transfected cells; host or cells: HEK293
T1 sequence (P32245 whole entry D146M): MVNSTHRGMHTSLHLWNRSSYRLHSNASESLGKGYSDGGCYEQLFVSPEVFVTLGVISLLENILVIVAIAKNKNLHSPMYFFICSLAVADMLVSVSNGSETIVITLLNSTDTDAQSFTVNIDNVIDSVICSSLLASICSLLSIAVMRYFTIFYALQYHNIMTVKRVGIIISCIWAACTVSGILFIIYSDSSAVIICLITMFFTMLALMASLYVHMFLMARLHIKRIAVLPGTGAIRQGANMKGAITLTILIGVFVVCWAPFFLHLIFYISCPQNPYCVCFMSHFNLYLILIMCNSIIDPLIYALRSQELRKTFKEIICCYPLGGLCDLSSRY
As to the kind of experiment: SMS-Luc luciferase reporter assay in HEK293 cells. Type of assay: cell-based. As to conditions: FIG. 10. As to the method: Briefly, HEK293 cells were cotransfected, as described above, with an expression vector encoding either the wild-type MC-4 receptor or the Asp146Met mutant MC-4 receptor and the reporter construct, SMS-Luc. As a negative control, cells were transfected with SMS-Luc and pcDNA1. Basal and ligand (αMHS) induced activity of the negative control, the wild-type MC-4 receptor, and the Asp146Met mutant MC-4 receptor were measured using the luciferase assay described above.

With `C[C@@H](NC(=O)[C@@H](N)Cc1ccc(O)cc1)C(=O)NCC(=O)N(C)[C@@H](Cc1ccccc1)C(=O)NCCO` [DAMGO, [D-Ala^2-MePhe^4, Gly-ol^5]enkephalin], reference compound], in the assay on rat mu opioid receptor, the “effect of agonist stimulation on forskolin induced activity” value is recorded as “decrease in forskolin induced activity”.
With “Asp146Met mutant MC-4 receptor: melanocortin-4 receptor with Asp146Met substitution in the DRY motif”, in the assay with MC-4 receptor, the “basal level activity compared to wild-type MC-4 receptor” value is listed as “higher basal level activity”.
